{"source": "BindingDB's records for doi:10.1021/jm00102a002", "about": "(Bristol-Myers Squibb, 1993)", "key": {"[1]": {"target": "Serotonin 2 (5-HT2) receptor (Rattus norvegicus, UniProt P08909+P14842+P30994)", "sequence (P14842 whole entry)": "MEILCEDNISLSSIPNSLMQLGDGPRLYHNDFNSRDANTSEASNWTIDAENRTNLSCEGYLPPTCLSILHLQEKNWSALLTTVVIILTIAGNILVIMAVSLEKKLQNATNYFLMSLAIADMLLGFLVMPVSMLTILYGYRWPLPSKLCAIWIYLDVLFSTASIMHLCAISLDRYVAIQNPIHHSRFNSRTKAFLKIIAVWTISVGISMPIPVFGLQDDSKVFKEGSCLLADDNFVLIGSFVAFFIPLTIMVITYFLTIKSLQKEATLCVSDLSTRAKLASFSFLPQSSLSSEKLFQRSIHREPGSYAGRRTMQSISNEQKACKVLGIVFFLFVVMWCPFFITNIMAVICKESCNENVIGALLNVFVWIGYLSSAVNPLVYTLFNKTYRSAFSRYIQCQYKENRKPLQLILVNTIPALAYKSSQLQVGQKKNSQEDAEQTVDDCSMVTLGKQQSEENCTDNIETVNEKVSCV", "sequence (P08909 whole entry)": "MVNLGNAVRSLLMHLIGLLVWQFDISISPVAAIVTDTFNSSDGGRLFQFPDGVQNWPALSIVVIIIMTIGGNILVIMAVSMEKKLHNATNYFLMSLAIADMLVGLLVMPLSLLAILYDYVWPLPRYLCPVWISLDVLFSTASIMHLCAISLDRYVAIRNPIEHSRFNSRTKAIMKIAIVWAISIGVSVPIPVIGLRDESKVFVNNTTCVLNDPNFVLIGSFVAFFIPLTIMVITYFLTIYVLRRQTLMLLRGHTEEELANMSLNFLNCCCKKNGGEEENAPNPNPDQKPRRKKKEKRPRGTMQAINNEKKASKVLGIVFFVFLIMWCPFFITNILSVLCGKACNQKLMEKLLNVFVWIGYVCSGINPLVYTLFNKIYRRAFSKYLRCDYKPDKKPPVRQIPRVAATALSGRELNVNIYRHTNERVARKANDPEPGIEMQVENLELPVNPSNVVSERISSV", "sequence (P30994 whole entry)": "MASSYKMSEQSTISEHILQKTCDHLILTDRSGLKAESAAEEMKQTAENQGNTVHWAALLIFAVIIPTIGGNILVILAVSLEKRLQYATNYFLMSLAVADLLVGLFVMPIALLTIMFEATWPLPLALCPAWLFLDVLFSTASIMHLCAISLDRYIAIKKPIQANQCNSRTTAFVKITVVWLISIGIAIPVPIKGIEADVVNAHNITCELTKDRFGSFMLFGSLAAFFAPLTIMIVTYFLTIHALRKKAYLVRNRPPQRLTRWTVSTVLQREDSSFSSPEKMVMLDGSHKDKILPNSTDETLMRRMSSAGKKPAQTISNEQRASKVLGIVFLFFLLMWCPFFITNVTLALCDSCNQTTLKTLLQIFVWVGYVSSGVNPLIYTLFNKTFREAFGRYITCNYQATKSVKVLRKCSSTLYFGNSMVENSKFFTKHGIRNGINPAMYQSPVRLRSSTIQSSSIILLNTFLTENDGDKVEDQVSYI", "assay": "ChEBML_1935", "from_the_text": "Inhibitory concentration against radioligand [3H]spiperone binding to 5-hydroxytryptamine 2 receptor in rat cortex"}, "D(2) dopamine receptor": {"target": "D(2) dopamine receptor (Rattus norvegicus, UniProt P61169)", "sequence (P61169 whole entry)": "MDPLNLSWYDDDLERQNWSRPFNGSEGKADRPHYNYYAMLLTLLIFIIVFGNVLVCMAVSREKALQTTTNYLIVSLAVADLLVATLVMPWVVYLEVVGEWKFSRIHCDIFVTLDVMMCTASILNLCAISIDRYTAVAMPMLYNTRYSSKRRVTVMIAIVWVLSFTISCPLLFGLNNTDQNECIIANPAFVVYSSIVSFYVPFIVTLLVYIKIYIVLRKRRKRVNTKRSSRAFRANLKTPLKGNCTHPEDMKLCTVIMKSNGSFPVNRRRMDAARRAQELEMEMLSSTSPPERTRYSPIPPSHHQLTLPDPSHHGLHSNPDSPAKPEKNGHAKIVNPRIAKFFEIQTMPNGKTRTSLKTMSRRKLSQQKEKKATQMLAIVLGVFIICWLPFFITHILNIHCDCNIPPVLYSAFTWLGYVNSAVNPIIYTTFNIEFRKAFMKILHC", "assay": "ChEBML_61741", "excerpt": "Inhibitory concentration against radioligand [3H]spiperone binding to rat striatal Dopamine receptor D2"}}, "data": [{"smiles": "OC(CCCN1CCN(c2ncc(F)cn2)CC1)c1ccc(F)cc1", "note": "(configuration not stated) [1-(4-fluorophenyl)-4-(4-(5-fluoropyrimidin-2-yl)piperazin-1-yl)butan-1-ol]", "values": [{"measurement": "IC50", "setting": "[1]", "result": 1.7, "unit": "µM"}, {"measurement": "IC50", "setting": "D(2) dopamine receptor", "result": 6.43, "unit": "µM"}]}]}
